System: PC-12
Assay: Neuroprotective activity against serum-deprivation-induced damage in rat PC12 cells assessed as survival rate at 10 uM after 48 hrs by MTT assay relative to control
Format: functional
Conditions: PC-12, 48 h, read-out: Survival

Row | SMILES | viability at 10 µM
1 | CC(C)=CCC/C(=C\[C@H]1C=C(CO)[C@@H]2CC[C@]3([C@H](CCCO)/C(=C(\C)C=O)CC[C@]3(C)O)[C@@H]2O1)CO | 50.9%
2 | CC(C)=CCC/C(=C\[C@H]1C=C(CO)[C@@H]2CC[C@]3([C@H](CCCO)/C(=C(/C)C=O)CC[C@]3(C)O)[C@@H]2O1)CO | 54.1%
3 | CC(C)=CCC/C(C)=C/[C@H]1C=C(CO)[C@@H]2CC[C@]3([C@H](CCCO)/C(=C(/C)C=O)CC[C@]3(C)O)[C@@H]2O1 | 63.8%

— ChEMBL document CHEMBL3108752, “Iridal-type triterpenoids with neuroprotective activities from Iris tectorum” (2014)
